Measurements taken from paper PMC12027730, “Lapatinib-Resistant HER2+ Breast Cancer Cells Are Associated with Dysregulation of MAPK and p70S6K/PDCD4 Pathways and Calcium Management, Influence of Cryptotanshinone” (International Journal of Molecular Sciences, 2025).

Target: T1, eIF4AI (Homo sapiens, UniProt P60842)
T1 construct: gene EIF4A1
Experiment: synchronous fluorescence quenching, eIF4A […] with Cry […]
Assay type: binding

T1 sequence (P60842 2-406): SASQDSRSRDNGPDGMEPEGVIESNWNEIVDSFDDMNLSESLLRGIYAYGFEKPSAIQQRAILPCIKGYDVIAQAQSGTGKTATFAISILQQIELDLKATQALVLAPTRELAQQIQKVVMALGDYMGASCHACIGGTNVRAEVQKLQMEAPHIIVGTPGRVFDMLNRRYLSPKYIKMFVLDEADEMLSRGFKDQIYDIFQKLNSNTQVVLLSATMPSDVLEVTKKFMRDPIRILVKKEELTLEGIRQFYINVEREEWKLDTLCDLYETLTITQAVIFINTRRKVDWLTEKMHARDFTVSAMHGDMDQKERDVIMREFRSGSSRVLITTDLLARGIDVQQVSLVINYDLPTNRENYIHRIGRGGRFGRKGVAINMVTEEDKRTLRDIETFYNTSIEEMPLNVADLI

C[C@H]1COC2=C1C(=O)C(=O)c1c2ccc2c1CCCC2(C)C [Cry, Cryptotanshinone]
synchronous fluorescence quenching, eIF4A 12 μM with Cry 0-50 μM: A Cry dose-dependent fluorescence emission decrease in eIF4A associated with the induction of the quenching phenomena was observed
